Laboratory results as given in ChEMBL document CHEMBL1687697 (ACS Med Chem Lett, 2010).
Active and inactive are the calls of the source. The rule behind the calls is not given here.

Molecular target: Signal transducer and activator of transcription 3 (Homo sapiens) (UniProt P40763)
Assay: Inhibition of STAT3 in human HeLa cells after 24 hrs by luciferase reporter gene assay
Type: cell-based

Chain of Signal transducer and activator of transcription 3 (Homo sapiens) (P40763 whole entry): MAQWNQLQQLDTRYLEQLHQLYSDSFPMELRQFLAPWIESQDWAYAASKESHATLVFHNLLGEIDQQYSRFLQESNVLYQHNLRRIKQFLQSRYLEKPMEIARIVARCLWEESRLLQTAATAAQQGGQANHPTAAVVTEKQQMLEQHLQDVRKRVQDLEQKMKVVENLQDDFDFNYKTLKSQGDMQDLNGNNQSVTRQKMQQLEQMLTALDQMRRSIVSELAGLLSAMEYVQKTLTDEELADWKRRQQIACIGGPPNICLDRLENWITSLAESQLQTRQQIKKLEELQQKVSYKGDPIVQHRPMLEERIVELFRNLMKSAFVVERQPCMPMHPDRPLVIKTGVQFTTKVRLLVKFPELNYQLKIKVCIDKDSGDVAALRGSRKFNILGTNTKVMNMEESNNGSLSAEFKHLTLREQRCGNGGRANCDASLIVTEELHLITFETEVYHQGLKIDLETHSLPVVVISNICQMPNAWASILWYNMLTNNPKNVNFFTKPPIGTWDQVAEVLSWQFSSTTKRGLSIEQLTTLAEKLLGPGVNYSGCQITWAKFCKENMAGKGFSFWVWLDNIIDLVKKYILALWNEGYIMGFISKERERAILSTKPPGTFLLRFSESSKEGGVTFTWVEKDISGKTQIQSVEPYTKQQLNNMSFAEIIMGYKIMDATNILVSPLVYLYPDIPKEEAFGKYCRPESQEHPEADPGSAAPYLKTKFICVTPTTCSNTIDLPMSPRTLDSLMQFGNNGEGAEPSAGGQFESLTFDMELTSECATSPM

COc1ccc(C(=O)N2CCCC2=O)cc1
inhibition: inactive

COc1ccc(-c2cc(=O)c3c(O)cc(O[C@@H]4O[C@H](CO[C@@H]5O[C@@H](C)[C@H](O)[C@@H](O)[C@H]5O)[C@@H](O)[C@H](O)[C@H]4O)cc3o2)cc1O
inhibition: inactive
